Measurements from patent publication US20210395210A1, “INHIBITION OF BACTERIAL CHAPERONIN SYSTEMS” (THE TRUSTEES OF INDIANA UNIVERSITY, priority 2018, published 2021).

What was measured:
[1] = in vitro; conditions: human
Protocol: HEK 293 cells were maintained in MEM medium (Corning Cellgro, 10-009 CV) supplemented with 10% FBS (Sigma, F2242). […] Cells at 80% confluence were harvested and diluted in growth medium, then 45 μL of the THLE-3 cells (1,500 cells/well) or HEK 293 cells (1,500 cells/well) were dispensed per well, and plates were sealed with “Breathe Easy” oxygen permeable membranes (Diversified Biotech) and incubated at 37° C., 5% CO2, for 24 h.

[2] = molecular target: T1, E. coli GroEL/ES (Escherichia coli, UniProt P0A6F5); assay: GroEL/ES-mediated dMDH refolding assay; assay type: biochemical
T1 construct: made in house; host or cells: GroEL in E. coli DH5α; GroES in E. coli BL21 (DE3)
Protocol: Reagent preparation: For these assays, four primary reagent stocks were prepared: 1) GroEUES-dMDH or HSP60/10-dMDH binary complex stock; 2) ATP initiation stock; 3) EDTA quench stock; 4) MDH enzymatic assay stock. Denatured MDH (dMDH) was prepared by 2-fold dilution of MDH (5 mg/ml, soluble pig heart MDH from Roche, product #10127248001) with denaturant buffer (7 M guanidine-HCl, 200 mM Tris, pH 7.4, and 50 mM DTT). MDH was completely denatured by incubating at room temperature for 45 min. The binary complex solutions were prepared by slowly adding the dMDH stock to a stirring stock with GroEL (or HSP60) in folding buffer (50 mM Tris-HCl, pH 7.4, 50 mM KCl, 10 mM MgCl2, and 1 mM DTT), followed by addition of GroES (or HSP10). The binary complex stocks were prepared immediately prior to dispensing into the assay plates and had final protein concentrations of 83.3 nM GroEL (Mr 800 kDa) or HSP60 (Mr 400 kDa), 100 nM GroES or HSP10 (Mr 70 kDa), and 20 nM dMDH in folding buffer. For the ATP initiation stock, ATP solid was diluted into folding buffer to a final concentration of 2.5 mM. Quench solution contained 600 mM EDTA (pH 8.0). The MDH enzymatic assay stock consisted of 20 mM sodium mesoxalate and 2.4 mM NADH in reaction buffer (50 mM Tris-HCl, pH 7.4, 50 mM KCl, and 1 mM DTT).
Assay Protocol: First, 30 μL aliquots of the GroEL/ES-dMDH or HSP60/10-dMDH binary complex stocks were dispensed into clear, 384-well polystyrene plates. […] The chaperonin-mediated refolding cycles were initiated by addition of 20 μL of ATP stock (reagent concentrations during refolding cycle: 50 nM GroEL or HSP60, 60 nM GroES or HSP10, 12 nM dMDH, 1 mM ATP, and compounds of 100 μM to 46 nM, 3-fold dilution series). The refolding reactions were incubated at 37° C. […] Next, the assay was quenched by addition of 10 μL of the EDTA to final concentration of 100 mM. […] A340 nm measurements were recorded at 0.5 minutes (start point) and at successive time points until the amount of NADH consumed reached ˜90% (end point, generally between 20-35 minutes). The differences between the start and end point A340 values were used to calculate the % inhibition of the GroEL/ES or HSP60/10 machinery by the compounds. […] Results presented represent the averages of IC50 values obtained from at least quadriplicate (duplicate of duplicate) replicates.
(§1) After generating the compound library, we next employed a series of well-established biochemical assays to evaluate compound inhibitory effects against the GroEUES chaperonin system (See FIG. 6 and FIG. 7). We used E. coli GroEUES as the surrogate chaperonin system for refolding of the reporter enzymes malate dehydrogenase (MDH) and rhodanese (Rho). Briefly, binary complexes are formed between GroEL and denatured MDH or Rho, which are then refolded to their native states upon addition of ATP and the GroES co-chaperonin. Enzymatic activities of refolded native MDH or Rho act as coupled reporters of GroEUES refolding functions since in the presence of chaperonin inhibitors, no functional reporter enzymes are generated.

[3] = molecular target: T1, E. coli GroEL/ES; assay: GroEL/ES-mediated dRho refolding assay; assay type: biochemical; conditions: for log(IC50) GroEL/ES-dRho Refolding: log of IC50 (μM scale), with standard deviation
Protocol: Reagent preparation: For this assay, five primary reagent stocks were prepared: 1) GroEUES-dRho binary complex stock; 2) ATP initiation stock; 3) thiocyanate enzymatic assay stock; 4) formaldehyde quench stock; 5) ferric nitrate reporter stock. Denatured rhodanese (dRho) was prepared by 3-fold dilution of rhodanese (Roche product #R1756, diluted to 10 mg/mL with H2O) with denaturant buffer (12 M Urea, 50 mM Tris-HCl, pH 7.4, and 10 mM DTT). Rhodanese was completely denatured by incubating at room temperature for 45 min. The binary complex solution was prepared by slowly adding the dRho stock to a stirring stock of concentrated GroEL in modified folding buffer (50 mM Tris-HCl, pH 7.4, 50 mM KCl, 10 mM MgCl2, 5 mM Na2S2O3, and 1 mM DTT). The solution was centrifuged at 16,000×g for 5 minutes, and the supernatant was collected and added to a solution of GroES in modified folding buffer to give final protein concentrations of 100 nM GroEL, 120 nM GroES, and 80 nM dRho. The binary complex stock was prepared immediately prior to use. For the ATP initiation stock, ATP solid was diluted into modified folding buffer to a final concentration of 2.0 mM. The thiocyanate enzymatic assay stock was prepared to contain 70 mM KH2PO4, 80 mM KCN, and 80 mM Na2S2O3 in water. The formaldehyde quench solution contained 30% formaldehyde in water. The ferric nitrate reporter stock contained 8.5% w/v Fe(NO3)3 and 11.3% v/v HNO3 in water.
Assay Protocol: First, 10 μL aliquots of the GroEL/ES-dRho complex stock were dispensed into clear, 384-well polystyrene plates. […] The chaperonin-mediated refolding cycle was initiated by addition of 10 μL of ATP stock (reagent concentrations during refolding cycle: 50 nM GroEL, 60 nM GroES, 40 nM dRho, 1 mM ATP, and compounds of 250 μM to 114 nM, 3-fold dilution series). After incubating for 45 minutes at 37° C. for the refolding cycle, 30 μL of the thiocyanate enzymatic assay stock was added and incubated for 60 min at R.T. for the refolded rhodenase enzymatic reporter reaction. The reporter reaction was quenched by adding 10 μL of the formaldehyde quench stock, and then 40 μL of the ferric nitrate reporter stock was added to quantify the amount of thiocyanate produced during the enzymatic reporter reaction, which is proportional to the amount of dRho refolded by GroEL/ES. After incubating at R.T. for 15 min, the absorbance by Fe(SCN)3 was measured at 460 nm using a Molecular Devices SpectraMax Plus384 microplate reader. A second set of baseline control plates were prepared analogously, but without GroEL/ES-dRho protein binary solution, to correct for possible interference from compound absorbance or turbidity. […] Results presented represent the averages of IC50 values obtained from at least quadriplicate (duplicate of duplicate) replicates.
as §1

[4] = log of IC50 (μM scale), with standard deviation

T1 sequence (P0A6F5 2-548): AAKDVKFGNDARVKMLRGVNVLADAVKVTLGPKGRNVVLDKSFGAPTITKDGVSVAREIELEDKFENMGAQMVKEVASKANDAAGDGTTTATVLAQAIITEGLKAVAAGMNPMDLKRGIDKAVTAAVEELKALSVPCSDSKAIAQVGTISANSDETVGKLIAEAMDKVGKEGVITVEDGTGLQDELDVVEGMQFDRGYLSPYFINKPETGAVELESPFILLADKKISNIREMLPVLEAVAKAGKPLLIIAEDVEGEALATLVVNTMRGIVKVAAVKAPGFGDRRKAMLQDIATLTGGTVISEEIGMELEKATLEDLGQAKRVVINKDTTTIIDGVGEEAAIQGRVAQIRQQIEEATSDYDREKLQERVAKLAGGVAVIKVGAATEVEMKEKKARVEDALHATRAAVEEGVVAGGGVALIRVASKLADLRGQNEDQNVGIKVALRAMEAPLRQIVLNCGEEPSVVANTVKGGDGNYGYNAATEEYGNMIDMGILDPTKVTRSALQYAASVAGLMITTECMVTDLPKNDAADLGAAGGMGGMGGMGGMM

Row | SMILES | CC50 at 48 h [1] [µM] | IC50 [2] [µM] | IC50 [3] [µM] | log(IC50) GroEL/ES-dMDH Refolding [2, 4] | log(IC50) GroEL/ES-dRho Refolding [3] | inhibition in the GroEL/ES-mediated refolding assays (in words) ([2]; dMDH and dRho refolding assays) | IC50 ([2]; log of IC50 (μM scale), with standard deviation, read-out: log(IC50) GroEL/ES-dMDH Refolding (converted)) [µM] | IC50 ([2]; read-out: Biochemical Assay IC50 GroEL/ES-dMDH refolding) [µM] | IC50 ([3]; read-out: Biochemical Assay IC50 GroEL/ES-dRho Refolding) [µM]
1 | COc1c(Br)cc(Br)cc1C(=O)Nc1ccc(Sc2nc3ccccc3s2)cc1 [Compound 33, N-(4-(Benzo[d]thiazol-2-ylthio)phenyl)-3,5-dibromo-2-methoxybenzamide] | > 100 | > 100 | > 100 | – | – | – | – | – | –
2 | COc1ccc(Br)cc1C(=O)Nc1ccc(Sc2nc3ccccc3s2)cc1 [Compound 35, N-(4-(Benzo[d]thiazol-2-ylthio)phenyl)-5-bromo-2-methoxybenzamide] | > 100 | > 100 | > 100 | – | – | – | – | – | –
3 | COc1ccccc1C(=O)Nc1ccc(Sc2nc3ccccc3s2)cc1 [Compound 36, N-(4-(Benzo[d]thiazol-2-ylthio)phenyl)-2-methoxybenzamide] | > 100 | > 100 | > 100 | – | – | – | – | – | –
4 | COc1c(Br)cc(Br)cc1C(=O)Nc1cccc(Cl)c1 [Compound 37, 3,5-Dibromo-N-(3-chlorophenyl)-2-methoxybenzamide] | > 100 | > 100 | > 100 | >2 | >2 | – | – | – | –
5 | COc1c(Br)cccc1C(=O)Nc1cccc(Cl)c1 [Compound 38] | > 100 | > 100 | > 100 | >2 | >2 | – | – | – | –
6 | COc1ccc(Br)cc1C(=O)Nc1cccc(Cl)c1 [Compound 39, 5-Bromo-N-(3-chlorophenyl)-2-methoxybenzamide] | > 100 | > 100 | > 100 | >2 | >2 | – | – | – | –
7 | COc1ccccc1C(=O)Nc1cccc(Cl)c1 [Compound 40, N-(3-Chlorophenyl)-2-methoxybenzamide] | > 100 | > 100 | > 100 | >2 | >2 | – | – | – | –
8 | COc1c(Br)cc(Br)cc1C(=O)Nc1ccccc1 [Compound 41, 3,5-Dibromo-2-methoxy-N-phenylbenzamide] | > 100 | > 100 | > 100 | >2 | >2 | – | – | – | –
9 | COc1c(Br)cccc1C(=O)Nc1ccccc1 [Compound 42, 3-Bromo-2-methoxy-N-phenylbenzamide] | > 100 | > 100 | > 100 | >2 | >2 | – | – | – | –
10 | COc1ccc(Br)cc1C(=O)Nc1ccccc1 [Compound 43, 5-Bromo-2-methoxy-N-phenylbenzamide] | > 100 | > 100 | > 100 | >2 | >2 | – | – | – | –
11 | COc1ccccc1C(=O)Nc1ccccc1 [Compound 44, 2-Methoxy-N-phenylbenzamide] | > 100 | > 100 | > 100 | >2 | >2 | – | – | – | –
12 | O=C(Nc1ccc(Oc2ccc(Cl)cc2)c(Cl)c1)c1cc(I)cc(I)c1O [Rafoxanide, rafoxanide, reference compound] | > 100 | – | – | – | 0.34 ± 0.11 | potent GroEUES inhibitors | 4.37 | 4.3 | 2.2
13 | CN[C@H](CC(C)C)C(=O)N[C@H]1C(=O)N[C@@H](CC(N)=O)C(=O)N[C@H]2C(=O)N[C@H]3C(=O)N[C@H](C(=O)N[C@H](C(=O)O)c4cc(O)cc(O)c4-c4cc3ccc4O)[C@H](O)c3ccc(c(Cl)c3)Oc3cc2cc(c3O[C@@H]2O[C@H](CO)[C@@H](O)[C@H](O)[C@H]2O[C@H]2C[C@](C)(N)[C@H](O)[C@H](C)O2)Oc2ccc(cc2Cl)[C@H]1O [Vancomycin, vancomycin, reference compound] | > 100 | > 100 | > 100 | >2 | >2 | – | – | – | –
